Earlier results, collected in patent US11612656B2, “Use of small molecule based on indotricarbocyanine structure in preparation of medicines for tumor photothermal therapy” (Nanjing Nuoyuan Medical Devices Co., LTD., priority 2021, dated 2023).

Conditions: free ICG 20 μg/ml, light irradiation at power density 1 W/cm^2

CC1(C)C(/C=C/C=C/C=C/C=C2/N(CCCCS(=O)(=O)O)c3ccc4ccccc4c3C2(C)C)=[N+](CCCCS(=O)(=O)O)c2ccc3ccccc3c21.[Na+] [ICG, Indocyanine green]
photothermal conversion efficiency (PTCE): 15.1%
